Test results from US8802691B2 (priority 2009, dated 2014).
Like-named read-outs stand apart in the source and are kept apart here.

Assays:
prolactine hormone = details: for Tmax of prolactine (time to maximum prolactine concentration), mean: male dog, serum
Description: During each of the 7 phases blood samples were extracted at different times (t=0 h, 0.5 h, 1 h, 2 h, 4 h, 6 h, 8 h, 10 h, 12 h, 18 h, 36 y 48 h) for determining serum concentrations of prolactine using a commercial immuno enzymatic assay kit.

monocytes = experiment: NBT reduction test in whole blood of healthy dogs: activated monocytes; format: in vivo, dog
Description: (§1) 20 dogs of different breed, sex and age, were randomly distributed into two groups of 10. […] During the study several visits were paid (days 0, 15, 30, 60 and 90) during which some clinical examinations were done and blood samples were collected for biochemical, haemathological and serological analyses (DAT). The percentages of activated monocytes and neutrophils were determined in whole blood samples through the nitroblue tetrazolium (NBT) reduction test.

neutrophils = experiment: NBT reduction test in whole blood of healthy dogs: activated neutrophils; format: in vivo, dog
Description: as §1

Leishmania infantum = experiment: Circulating monocyte-derived macrophages from treated healthy dogs, in vitro infection with Leishmania infantum promastigotes; format: cell-based
Excerpt: It is designed as a prospective monocentric study. A total of 10 dogs have been included, each of them acting as its own control, for which reason it has not been considered necessary the use of a negative control. […] During the study several visits are paid the days 0 (basal), 15 and 30 of treatment, and days 60 and 90 (one and two months after finishing the treatment, respectively). During each visit blood is collected from animals and it is processed to isolate and culture monocytes-macrophages, which are then co-cultivated with Leishmania promastigotes. After 48 hours the nitroblue tetrazolium (NBT) reduction test is carried out on the cultures and the percentage of parasited macrophages and the number of amastigotes per macrophage were measured. Blood samples are also collected on days 0 and 90 to assess animal health by biochemical and haemathological analyses.

canine Leishmaniosis [1] = experiment: Controlled study of a domperidone treatment plan in seronegative dogs in an endemic area (Example 5); format: in vivo, dog; details: treated group n = 120, two 30-day treatments at 0.5 mg/kg/day oral
Excerpt: The study lasted for 9 months, beginning at the onset of the activity period of the vector insect in the geographical area in which animals were found and closing three months after the end of this period. The presence of the vector was confirmed before starting the treatment.
The remaining 120 animals received a placebo under an equivalent dosage regime.

canine Leishmaniosis [2] = experiment: Clinical study of Domperidone alone in dogs with initial stage Leishmaniosis (Example 6); format: in vivo, dog; details: for percentage of dogs with antibody titre lower than DAY 0: oral 1 mg/kg/12 h (<30 kg) or 0.7 mg/kg/12 h for 30 days, 70 dogs
Description: A clinical study was performed including a group of 70 dogs with an initial stage of Leishmaniosis (antibody titre against Leishmania between 1/800 and 1/1600-threshold of positively 1/800-and oligosymptomatics).
[…] During said controls different immunological (antibody titre against Leishmania-DAT, intradermoreaction test-Leishmanina), clinical (clinical symptoms, body weight) and analytical (biochemical profile, haematology, proteinogram and urine test for the determination of UPC ratio) parameters were assessed.

canine Leishmaniosis [3] = tested on: canine Leishmaniosis
L. Infantum = details: 2 mg/kg/day, dogs infected with L. Infantum, ES 2246142; cited from earlier work
canine Leishmaniosis [4] = details: conventional treatments monitored by serology, bibliography, cited from earlier work
[5] = Day 0 (before treatment), 0.5 mg/kg/day oral for 30 days, healthy dogs n = 10
[6] = Day 15, 0.5 mg/kg/day oral for 30 days, healthy dogs n = 10
[7] = Day 30, 0.5 mg/kg/day oral for 30 days, healthy dogs n = 10
[8] = Day 90 (60 days after end of treatment), 0.5 mg/kg/day oral for 30 days
[9] = sample of Day 0 (basal), dogs given 0.5 mg/kg/day oral for 30 days
[10] = sample of Day 15, dogs given 0.5 mg/kg/day oral for 30 days
[11] = sample of Day 30, dogs given 0.5 mg/kg/day oral for 30 days
[12] = sample of Day 60 (one month after end of treatment)
[13] = sample of Day 90 (two months after end of treatment)

## O=c1[nH]c2ccccc2n1CCCN1CCC(n2c(=O)[nH]c3cc(Cl)ccc32)CC1 [Domperidone]
Prolactine hormone; all six dosages 0.125-4 mg/kg, single oral dose
  average concentrations of prolactine in the first 36 hours after administration versus placebo: remained above the prolactine concentration in the group treated with the placebo
Prolactine hormone; single oral dose 0.125 mg/kg
  Tmax of prolactine (time to maximum prolactine concentration), mean: 8.6 h
Prolactine hormone; single oral dose 0.250 mg/kg
  Tmax of prolactine (time to maximum prolactine concentration), mean: 7.2 h
Prolactine hormone; single oral dose 0.5 mg/kg
  Tmax of prolactine (time to maximum prolactine concentration), mean: 3.7 h
Prolactine hormone; single oral dose 1 mg/kg
  Tmax of prolactine (time to maximum prolactine concentration), mean: 2.7 h
Prolactine hormone; single oral dose 2 mg/kg
  Tmax of prolactine (time to maximum prolactine concentration), mean: 5.0 h
Prolactine hormone; single oral dose 4 mg/kg
  Tmax of prolactine (time to maximum prolactine concentration), mean: 4.6 h
monocytes; [5]
  percentage of activated monocytes, mean: 3.200%
monocytes; [6]
  percentage of activated monocytes, mean: 26.10%
monocytes; [7]
  percentage of activated monocytes, mean: 26.40%
monocytes; Day 60 (30 days after end of treatment), 0.5 mg/kg/day oral for 30 days
  percentage of activated monocytes, mean: 8.600%
monocytes; [8]
  percentage of activated monocytes, mean: 3.100%
neutrophils; [5]
  percentage of activated neutrophils, mean: 5.700%
neutrophils; [6]
  percentage of activated neutrophils, mean: 38.50%
neutrophils; [7]
  percentage of activated neutrophils, mean: 40.00%
neutrophils; [8]
  percentage of activated neutrophils, mean: 5.900%
Leishmania infantum; [9]
  number of amastigotes per macrophage after 48 hours of in vitro co-culture with Leishmania infantum promastigotes, mean: 44.4
  percentage of positive NBT macrophages after 48 hours of co-culture with Leishmania infantum promastigotes, mean: 2.00%
Leishmania infantum; [10]
  number of amastigotes per macrophage after 48 hours of in vitro co-culture with Leishmania infantum promastigotes, mean: 9.7
  percentage of positive NBT macrophages after 48 hours of co-culture with Leishmania infantum promastigotes, mean: 61.10%
Leishmania infantum; [11]
  number of amastigotes per macrophage after 48 hours of in vitro co-culture with Leishmania infantum promastigotes, mean: 11.3
  percentage of positive NBT macrophages after 48 hours of co-culture with Leishmania infantum promastigotes, mean: 62.20%
Leishmania infantum; [12]
  number of amastigotes per macrophage after 48 hours of in vitro co-culture with Leishmania infantum promastigotes, mean: 23.1
  percentage of macrophages infected after 48 hours of in vitro culture with Leishmania infantum promastigotes, mean: 82.6%
  percentage of positive NBT macrophages after 48 hours of co-culture with Leishmania infantum promastigotes, mean: 1.70%
Leishmania infantum; [13]
  number of amastigotes per macrophage after 48 hours of in vitro co-culture with Leishmania infantum promastigotes, mean: 42.6
  percentage of macrophages infected after 48 hours of in vitro culture with Leishmania infantum promastigotes, mean: 89.5%
  percentage of positive NBT macrophages after 48 hours of co-culture with Leishmania infantum promastigotes, mean: 1.80%
Canine Leishmaniosis [1]
  animals with seropositivity against Leishmania (DAT≧1/400) at the end of the study: 0%
Canine Leishmaniosis [1]; 9 months
  animals showing clinical symptoms indicative of adverse reactions attributable to the medication: None
Canine Leishmaniosis [1]; end of study (9th month)
  Animals WITH signs of canine Leishmaniosis, accumulated percentage: 0%
  Animals WITHOUT signs of canine Leishmaniosis, accumulated percentage: 100%
Canine Leishmaniosis [2]; DAY 30
  percentage of dogs with antibody titre lower than DAY 0: 10%
Canine Leishmaniosis [2]; DAY 90
  percentage of dogs with antibody titre lower than DAY 0: 47%
Canine Leishmaniosis [2]; DAY 180
  percentage of dogs with antibody titre lower than DAY 0: 57%
Canine Leishmaniosis [2]; in the course of the 12 months after the onset of the treatment
  animals with total disappearance of clinical symptoms (mainly lymphadenopathy): 100%
Canine Leishmaniosis [3]; 0.5 mg/kg, 720 h
  Animals WITH signs of canine Leishmaniosis, accumulated percentage: 11%
  Animals WITHOUT signs of canine Leishmaniosis, accumulated percentage: 85%
Canine Leishmaniosis [3]; treated group n = 45, 0.5 mg/kg/day for 30 days each four months, end of study (second year), highly endemic area
  Animals WITH signs of canine Leishmaniosis, accumulated percentage: 11%
L. Infantum
  effect on clinical signs of Leishmaniosis and level of antibodies: able to reduce the clinical signs of Leishmaniosis and/or to reduce the level of antibodies in infected animals

## Oc1ncnc2[nH]ncc12 [Alopurinol]
Canine Leishmaniosis [4]
  time after onset of treatment until decrease in the antibody titre against Leishmania is observed: ≥ 180 days
Canine Leishmaniosis [4]; listed as alopurinol
  time after onset of treatment until decrease in the antibody titre against Leishmania is observed: 180 days
